From patent publication US9808477B2 (Macau University of Science and Technology, priority 2015, dated 2017)
Where two headings read alike, the source gives them in different places.

Assays:
Type in all cases: cell-based, human
[1] = tested on: A2780/T cells (PTX-resistant, ABCB1-overexpressing ovarian cancer cells); experiment: cells; conditions: for IC50: read-out: IC50 ± SD
Method: (§1) Sulphorhodamine B (SRB) assays were used for cell density determination, based on sensitive measure of total cellular protein, which perform similarly compared with other proliferation assays such as MTT assay. Briefly, cells were seeded into flat bottomed 96-well plates at an initial density of 7.5×10^3 per well before treatment. […] After removing the medium, cells were fixed in 10% trichloroacetic acid for 1 h at 4° C. and then washed with water five times. 0.4% SRB dissolved in 1% v/v acetic acid was added and incubated […] for staining. The cells were quickly washed with 1% acetic acid and left to dry overnight. The protein bound SRB was solubilized by adding 200 μl 10 mM Tris buffer per well and was measured at wavelengths 490 nm using a plate reader (Spectra MAX 250; Molecular Devices, Sunnyvale, Calif.). The optical density of SRB in each well is directly proportional to the cell number.

[2] = tested on: A549/T cells (PTX-resistant, ABCB1-overexpressing NSCLC cells); experiment: SRB cell cytotoxicity / MDR reversal assay; conditions: for fold reversal: drug alone (reference)
Method: as §1

A2780/T cells [3] = experiment: Colony formation assay; conditions: 9 μM nobiletin alone or 0.94 μM PTX alone, 12 days
Description: The A2780/T cells were trypsinized and plated in fresh culture medium at a density of 600 cells/9.6 cm^2 plate. Subsequently, the cells were fixed with 70% ethanol and stained with crystal violet (0.5% in ethanol). The plates were rinsed with phosphate buffered saline (PBS), and the colony numbers were counted using the software of Quantity one-Colony counting.

A2780/T cells [4] = experiment: Apoptosis analysis by Annexin-V/PI double staining; conditions: 9 μM nobiletin alone or 0.94 μM PTX alone
Method: After treatment, 1×10^6 cells were collected, washed and suspended in 100 μl of binding buffer (10 mM N-2-hydroxyethylpiperazine-N,-2-ethanesulfonic acid/NaOH, 140 mM NaCl, 2.5 mM CaCl2, pH 7.4). Apoptotic cells were identified by double supravital staining with 5 μl recombinant FITC (fluorescein isothiocyanate)-conjugated Annexin-V and 5 μl PI (50 μg/ml). The cells were stained for […] at room temperature in the dark, and analyzed by fluorescence-activated cell sorting cater-plus flow cytometry. Data acquisition and analysis were performed in BD FACS Aria with FlowJo software.

A2780/T cells [5] = experiment: Cell cycle analysis (PI, flow cytometry); conditions: 0.94 μM PTX, no nobiletin
Method: A2780/T cells were harvested 24 hours, 48 hours, or 72 hours after treatment and washed twice with ice-cold PBS. The cells were fixed and permeabilized with 70% ice-cold ethanol overnight at 4° C. or 2 h at −20° C. After one additional wash in PBS, cells were stained with a staining solution containing propidium iodide (PI) ([…]) and RNase A (250 μg/ml) for 30 min at room temperature. They were then pelleted, washed and suspended in PBS to a final concentration of 1×10^6/ml and analyzed by flow cytometry BD FACS Aria (BD Biosciences, San Jose, Calif.).

A2780 cells = experiment: Cell cycle analysis (PI, flow cytometry); conditions: A2780, PTX 0.01 μM
A2780/T cells [6] = experiment: Combination index, Chou-Talalay method (CalcuSyn); conditions: Homo sapiens, A2780, read-out: Dose PTX at Fa = 0.5 (ED50), CalcuSyn simulation, A2780/T; PTX dose, alone or in the combination
A2780/T cells [7] = experiment: Intracellular accumulation of doxorubicin and Flutax-2; conditions: 8 h, 4.5 μM nobiletin or 20 μM QND
[8] = A2780/T, 48 h, drug +0.5 μM nobiletin (N)
[9] = A2780/T, 48 h, drug +1.5 μM nobiletin (N)
[10] = A2780/T, 48 h, drug +4.5 μM nobiletin (N)
[11] = Homo sapiens, A2780, 48 h, A2780/T, 48 h, SRB, drug alone (no nobiletin)
[12] = Homo sapiens, A549, 48 h, 48 h, SRB, drug alone (no nobiletin)

Structure (SMILES)	fold reversal [1] [fold]	IC50 [1, 8] [µM]	IC50 [1, 9] [µM]	IC50 [1, 10] [µM]	IC50 [1, 11] [µM]	IC50 [2, 12] [µM]	Fold reversal (IC50 without / with nobiletin) ([2]; drug +0.5 μM nobiletin) [fold]	Fold reversal (IC50 without / with nobiletin) ([2]; drug +1.5 μM nobiletin) [fold]	Fold reversal (IC50 without / with nobiletin) ([2]; drug +4.5 μM nobiletin) [fold]	IC50 ([2]; drug +4.5 μM nobiletin (N)) [µM]	fold reversal [2] [fold]	IC50 ([1]; Homo sapiens, A2780, 48 h) [µM]	IC50 ([2]; drug +0.5 μM nobiletin (N)) [µM]	IC50 ([2]; drug +1.5 μM nobiletin (N)) [µM]	degree of resistance: mean IC50 in A2780/T cells relative to A2780 [1] [fold]	also measured
O=c1[nH]cc(F)c(=O)[nH]1 [5-Fluorouracil]	1.00	132 ± 23.8	79.8 ± 9.18	26.1 ± 1.77	159 ± 18.3	134 ± 10.9	1.26 ± 0.01	1.99 ± 0.01	7.94 ± 0.02	16.8 ± 1.36	1.00	–	–	–	–	Fold reversal (IC50 without / with nobiletin) ([2]; drug +4.5 μM nobiletin, listed as 5-fluorouracil): 7.94 fold
COc1cccc2c1C(=O)c1c(O)c3c(c(O)c1C2=O)C[C@@](O)(C(C)=O)C[C@@H]3O[C@H]1C[C@H](N)[C@H](O)[C@H](C)O1 [Daunorubicin]	1.00	–	–	–	–	10.1 ± 1.63	1.68 ± 0.14	3.55 ± 0.01	14.17 ± 0.04	0.71 ± 0.13	1.00	11.9 ± 0.97	5.97 ± 0.49	2.84 ± 0.46	–	Fold reversal (IC50 without / with nobiletin) ([2]; drug +4.5 μM nobiletin, listed as daunorubicin): 14.17 fold
CC(=O)O[C@@]12CO[C@@H]1C[C@H](O)[C@@]1(C)C(=O)[C@H](O)C3=C(C)[C@@H](OC(=O)[C@H](O)[C@@H](NC(=O)OC(C)(C)C)c4ccccc4)C[C@@](O)([C@@H](OC(=O)c4ccccc4)[C@H]21)C3(C)C [Docetaxel]	1.00	8.97 ± 1.46	–	1.13 ± 0.18	17.9 ± 2.89	13.4 ± 1.09	1.59 ± 0.01	5.05 ± 0.82	19.18 ± 4.59	0.71 ± 0.11	1.00	–	8.43 ± 0.69	2.67 ± 0.22	–	IC50 ([1]; Homo sapiens, A2780, 48 h, A2780/T, 48 h, drug +1.5 μM nobiletin (N)): 3.57 ± 0.58 µM; Fold reversal (IC50 without / with nobiletin) ([2]; drug +4.5 μM nobiletin, listed as docetaxel): 19.18 fold
COc1cccc2c1C(=O)c1c(O)c3c(c(O)c1C2=O)C[C@@](O)(C(=O)CO)C[C@@H]3O[C@H]1C[C@H](N)[C@H](O)[C@H](C)O1 [Doxorubicin]	1.00	3.77 ± 0.3	1.89 ± 0.16	1.13 ± 0.18	5.97 ± 0.49	5.97 ± 0.49	1.42 ± 0.23	2.25 ± 0.37	5.01 ± 0.01	1.19 ± 0.1	1.00	–	4.23 ± 0.35	2.67 ± 0.22	158	IC50 ([1]; A2780/T, 48 h, drug +9 μM nobiletin (N)): 0.38 ± 0.04 µM; Fold reversal (IC50 without / with nobiletin) ([2]; drug +4.5 μM nobiletin, listed as doxorubicin): 5.01 fold
CC(=O)O[C@H]1C(=O)[C@@]2(C)[C@H]([C@H](OC(=O)c3ccccc3)[C@]3(O)C[C@H](OC(=O)[C@H](O)[C@@H](NC(=O)c4ccccc4)c4ccccc4)C(C)=C1C3(C)C)[C@]1(OC(C)=O)CO[C@@H]1C[C@@H]2O [Paclitaxel]	1.00	–	–	–	–	1.89 ± 0.15	2.51 ± 0.01	5.65 ± 0.8	22.33 ± 3.6	0.09 ± 0.01	1.00	2.51	0.75 ± 0.06	0.34 ± 0.02	501	Fold reversal (IC50 without / with nobiletin) ([2]; drug +0.5 μM nobiletin, listed as PTX): 2.51 fold; Fold reversal (IC50 without / with nobiletin) ([2]; drug +1.5 μM nobiletin, listed as PTX): 5.65 fold; Fold reversal (IC50 without / with nobiletin) ([2]; drug +4.5 μM nobiletin, listed as PTX): 22.33 fold; Fold reversal (IC50 without / with nobiletin) ([2]; drug +4.5 μM nobiletin, listed as paclitaxel): 22.33 fold; Fold reversal (IC50 without / with nobiletin) ([2]; drug +9 μM nobiletin): 62.88 ± 0.98 fold; IC50 ([2]; drug +9 μM nobiletin (N)): 0.03 ± 0.004 µM; Fold reversal (IC50 without / with nobiletin) ([2]; drug +9 μM nobiletin, listed as PTX): 62.88 fold; inhibition of colony formation, single agent (A2780/T cells [3]): no inhibition; apoptosis induction, single treatment (A2780/T cells [4]): did not show apoptosis induction; G1 phase cells (A2780/T cells [5]): 72%; G2 phase cells (A2780/T cells [5]): 17%; G1 phase content (A2780 cells; 24 hours): 46.47%; G2-M content (A2780 cells; 24 hours): 31.9%; G1 phase content (A2780 cells; 48 hours): 15.57%; G2-M content (A2780 cells; 48 hours): 63.2%; G1 phase content (A2780 cells; 72 hours): 5.53%; G2-M content (A2780 cells; 72 hours): 80.07%; EC50 (A2780/T cells [6]): 4.2 µM
C=C[C@H]1C[N@@]2CC[C@H]1C[C@@H]2[C@@H](O)c1ccnc2ccc(OC)cc12 [QND, quinidine]	–	–	–	–	–	–	–	–	–	–	–	–	–	–	–	intracellular accumulation of DOX (A2780/T cells [7]; 5 μM DOX): higher than that in untreated A2780/T; intracellular accumulation of Flutax-2 (A2780/T cells [7]; Flutax-2 1 μM): higher than that in untreated A2780/T
